According to publication PMC7894522, “Structure Based Design of Bicyclic Peptide Inhibitors of RbAp48” (Angewandte Chemie (International Ed. in English), 2020):
Read-outs that look alike come from different tables or passages of the source. Starred links: 1 amine or outer side, 2 acyl side, 3 side chain; linkers in the order of their positions; H or OH if unused. Positions of bridges follow the written chain, without caps; N, C: chain ends. Residues, ends and D or L forms follow the SMILES beside them. *: point of attachment. TBMB = c1c(C[*:1])cc(C[*:3])cc1C[*:2]; pXylylene = c1cc(C[*:2])ccc1C[*:1]; X1 = [N-]=[N+]=NCCOCCOCCOCC(=O)*

What was measured:
RbAp48 [1] = target: T1, RbAp48 (Homo sapiens, UniProt Q09028); experiment: Competitive fluorescence polarization (FP) assay using complex of peptide 1 and RbAp48; type: binding; parameters: Full length RbAp48 was cloned; His tag followed by 3C cleavage site (N, cleaved yes); made in house; host or cells: Sf9 insect cells
Outline: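 Sf9-expressed full-length RbAp48 (tag cleaved), 15 nM, displaced from 1 nM fluorescent peptide tracer in 20 mM Tris-HCl pH 7.5, 150 mM NaCl, 0.01% Tween-20. Read by FP (ex 485/em 535 nm) after 30 min at room temperature.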

RbAp48 [2] = target: T1, RbAp48; experiment: Isothermal titration calorimetry (direct and competitive); type: binding; parameters: Full length RbAp48 was cloned; His tag followed by 3C cleavage site (N, cleaved yes); made in house; host or cells: Sf9 insect cells
Description: The weak ligand interferes with binding of the strong ligand allowing the use of higher concentrations and therefore stronger signal. The actual affinity and thermodynamic parameters can then be calculated from the measured values.[ ^20 , ^21 ] The long linear peptide 2, monocyclic peptide 8, and bicyclic peptide 33 were analysed using this method and the results are reported in Table 2 (See Figure 4 A and Supplemental Figure 13–16). […] An effect which could not clearly be observed by the FP assay as it's lower limits were reached.
Protein expression and purification
RbAp48 was expressed and purified by the Dortmund Protein Facility. Full length RbAp48 was cloned into a pOPIN vector ligating it to an N-terminal His tag followed by a 3C cleavage site. The protein was expressed from Sf9 cells for 48 h. Cells were harvested and lysed and the protein was purified by loading onto a HisTrap FF crude 5 ml column followed by on-column cleavage using Precission protease. The cleaved protein was then further purified using a HiLoad 26/60 Superdex 200 column.
(§1) Fluorescence polarization assay […]
Isothermal Titration Calorimetry
Isothermal titration calorimetry measurements w ere performed using a Microcal ITC-200 device. The buffer for all measurements consisted of 20 mM Tris, 150 mM NaCl, pH 7.5 and all measurements were performed at 25°C in duplicate except for 8. RbAp48 was dialyzed overnight using a 10 kDa MWCO Slide-A-lizer dialysis membrane and peptide samples were dissolved in the dialysis buffer. Direct measurements of 40 were perfomed by titrating the peptide ( 800 µM) into the cell containing RbAp48 (40 µM) using 2 µl injection after an initial injection of 0.5 µl. […]
by competitive ITC where the protein is premixed with a weak ligand ( 40).[1] Competitive measurements were performed by titrating 2, 8 or 33 (300 µM) into the cell containing RbAp48 (30 µM) and 40 (416 µM). Other conditions were the same as for the direct measurement described above.
Ki was calculated according using the following formula: […]

[3] = Peptide stability in MDA-MB-231 whole cell lysate; type: in vitro ADME; conditions: human, 37°C, HPLC, duplicate
Description: To investigate whether the cyclization strategy influences the stability of the peptides we incubated 3, 8 and 33 in MDA‐MB‐231 cell lysate. […]
as §1
Isothermal Titration Calorimetry […]
Peptide stability was tested in whole cell lysate prepared from MDA-MB-231 cells using the freeze-thaw method. Peptides were dissolved in lysate (normalized to 5mg/ml protein using PBS) at 600 µM and incubated at 37°C. Samples were taken at different time points and mixed with an equal amount of MeOH containing 0.05 mg/ml ethylparaben as an i nternal standard. The samples were mixed and kept on ice for 15 minutes before centrifugation at 14000 rpm at 4 °C for 10 min. The supernatant was carefully removed and analyzed by HPLC. Peptide peaks were integrated and surface areas compared […]
Measurements were performed in duplicate.

RbAp48 [4] = target: T1, RbAp48; experiment: Pull-down with peptides immobilized on DBCO beads from MDA-MB-231 nuclear lysate; type: binding; parameters: RbAp48 was pulled down from nuclear lysate of MDA‐MB‐231 cells; endogenous in cells; host or cells: MDA-MB-231 nuclear lysate; conditions: 60 µM probe immobilized on DBCO beads, 1.5 h at 4°C, immunoblot
Description: To evaluate whether peptide 33 interacts with RbAp48 in a more complex biological environment we modified the N‐terminus with a linker bearing a terminal azide (47, see Table 1, supplemental Figure 4). The peptides were immobilized on DBCO‐beads via copper‐free click chemistry and exposed to MDA‐MB‐231 nuclear lysate. As a negative control an azide modified scrambled peptide sequence (48) with affinity >10 μM was used.
Nuclear lysate of MDA-MB-231 cells was prepared using a Subcellular Protein Fractionation Kit (Thermo Scientific) according to the manufacturer’s instructions. DBCO agarose beads (100 µl) were washed with buffer A ( 50 mM Tris-HCl, 150 mM NaCl, 1 mM DTT, 1% (v/v) Triton X -100, pH 7.4, cOmplete™ EDTA-free Protease Inhibitor Cocktail ) three times. The beads were incubated overnight at 4°C in a solution containing either 47, 48 or no probe (500 µl containing 60 µM probe). After immobilization, the beads were washed again with buffer A three times followed by incubation with the nuclear lysate (500 µl) and incubated for 1.5 h at 4°C. After incubat ion beads were washe d with buffer B (50 mM Tris-HCl, 500 mM NaCl, 1 mM DTT, 1% (v/v) Triton X -100, pH 7.4, cOmplete™ EDTA - free Protease Inhibitor Cocktail ) three times. Protein was eluted by adding SDS sample buffer and loaded the mixture directly on SDS -page gel for analysis. […]

[5] = Table 1, competitive FP, tracer peptide 1 1 nM, RbAp48 15 nM, 20 mM Tris-HCl, 150 mM NaCl, 0.01% Tween-20, pH 7.5, 30 min room temperature, lower limit set by 15 nM protein, read-out: IC50
[6] = competitive ITC with weak ligand 40

T1 sequence (Q09028 whole entry): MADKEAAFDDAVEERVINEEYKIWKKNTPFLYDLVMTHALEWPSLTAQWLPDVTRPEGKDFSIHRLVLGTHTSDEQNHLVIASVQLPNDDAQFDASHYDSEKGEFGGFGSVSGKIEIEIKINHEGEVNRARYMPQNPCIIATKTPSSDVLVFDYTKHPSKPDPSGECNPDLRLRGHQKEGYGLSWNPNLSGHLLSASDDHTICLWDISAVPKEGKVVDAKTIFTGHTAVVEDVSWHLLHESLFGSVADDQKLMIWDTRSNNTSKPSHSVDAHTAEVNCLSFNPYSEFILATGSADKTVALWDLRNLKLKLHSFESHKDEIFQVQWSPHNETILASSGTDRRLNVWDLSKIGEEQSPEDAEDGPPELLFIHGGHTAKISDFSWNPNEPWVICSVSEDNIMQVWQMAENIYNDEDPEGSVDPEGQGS

`CC[C@H](C)[C@H](NC(=O)[C@@H]1CCCN1C(=O)[C@H](CCCCN)NC(=O)[C@H](Cc1ccc(O)cc1)NC(=O)[C@@H]1CCCN1C(=O)[C@H](CCCNC(=N)N)NC(=O)[C@H](CCCNC(=N)N)NC(=O)[C@H](C)NC(=O)[C@H](C)NC(=O)[C@H](CCCNC(=N)N)NC(=O)[C@H](CCCCN)NC(=O)[C@@H](NC(=O)[C@H](CCC(=O)O)NC(=O)[C@H](CO)NC(=O)[C@H](CO)NC(=O)[C@H](CO)NC(=O)[C@H](CC(C)C)NC(=O)[C@H](CC(C)C)NC(=O)[C@H](CCCCN)NC(C)=O)[C@@H](C)O)C(=O)N[C@@H](C)C(=O)N[C@@H](CC(C)C)C(=O)N[C@@H](CCCNC(=N)N)C(=O)N[C@@H](CCC(N)=O)C(=O)N[C@@H](CO)C(=O)N[C@@H](CCC(N)=O)C(=O)N[C@@H](C)C(N)=O` [Peptide 2] (Ac-KLLSSSETKRAARRPYKPIALRQSQA-NH2) gave an IC50 (RbAp48 [1]; [5]) of 0.0134 ± 0.003 µM and a Kd (RbAp48 [2]; [6]) of 0.00518 µM.
Work on `CC(=O)N[C@H]1CSCc2ccc(cc2)CSC[C@@H](C(=O)N[C@@H](C)C(N)=O)NC(=O)[C@@H]2CCCN2C(=O)[C@H](CCCCN)NC(=O)[C@H](Cc2ccc(O)cc2)NC(=O)[C@@H]2CCCN2C(=O)[C@H](CCCNC(=N)N)NC(=O)[C@H](CCCNC(=N)N)NC(=O)[C@H](C)NC(=O)[C@H](C)NC(=O)[C@H](CCCNC(=N)N)NC(=O)[C@H](CCCCN)NC(=O)[C@H]([C@@H](C)O)NC1=O` [Peptide 8] (Ac-CTKRAARRPYKPCA-NH2; linker 1-13 via pXylylene) yielded a half-life at 600 µM ([3]; MDA-MB-231 whole cell lysate (freeze-thaw), 5 mg/ml protein in PBS, peptide 600 µM, read-out: t 1/2 (half-life)) of 11.9 min, a remaining at 5 min, 600 µM ([3]; T 5 min, MDA-MB-231 whole cell lysate 5 mg/ml protein, 600 µM, read-out: % left) of 67.8% and a remaining at 0.25 h, 600 µM ([3]; T 15 min, MDA-MB-231 whole cell lysate 5 mg/ml protein, 600 µM, read-out: % left) of 41%. For the same molecule, the remaining at 1 h, 600 µM ([3]; T 60 min, MDA-MB-231 whole cell lysate 5 mg/ml protein, 600 µM, read-out: % left) was 0%, the IC50 (RbAp48 [1]; [5]) was 0.0151 ± 0.0054 µM and the “K D” value (RbAp48 [2]; [6]) was “did not yield a binding curve”. The “K D [nM]” value (RbAp48 [2]; competitive ITC: 300 μM peptide titrated into 30 μM RbAp48 and 416 μM peptide 40, 20 mM Tris, 150 mM NaCl, pH 7.5, 25°C, duplicate except 8) was “N.B”.
For `CC(=O)N[C@H]1CSCc2cc3cc(c2)CSC[C@@H](C(=O)N[C@@H](C)C(N)=O)NC(=O)[C@@H]2CCCN2C(=O)[C@H](CCCCN)NC(=O)[C@H](Cc2ccc(O)cc2)NC(=O)[C@@H]2CCCN2C(=O)[C@H](CCCNC(=N)N)NC(=O)[C@H](C)NC(=O)[C@H](C)NC(=O)[C@H](CSC3)NC(=O)[C@H](CCCNC(=N)N)NC(=O)[C@H](CCCCN)NC(=O)[C@H]([C@@H](C)O)NC1=O` [Peptide 40] (Ac-CTKRCAARPYKPCA-NH2; linker 1-5-13 via TBMB), the IC50 (RbAp48 [1]; [5]) was 4.32 ± 0.974 µM, the “FP activity in words” value (RbAp48 [1]; competitive FP assay) was “decreased several orders of magnitude” and the Kd (RbAp48 [2]; weak binding ligand, direct ITC) was 15.8 µM.
In the case of `C[C@H](NC(=O)[C@@H]1CSCc2cc3cc(c2)CSC[C@H](NC(=O)[C@H](CCCNC(=N)N)NC(=O)[C@H](CCCCN)NC(=O)[C@H]([C@@H](C)O)NC(=O)[C@@H](NC(=O)COCCOCCOCCN=[N+]=[N-])CSC3)C(=O)N[C@@H](C)C(=O)N[C@@H](CCCNC(=N)N)C(=O)N[C@@H](CCCNC(=N)N)C(=O)N2CCC[C@H]2C(=O)N[C@@H](Cc2ccc(O)cc2)C(=O)N[C@@H](CCCCN)C(=O)N2CCC[C@H]2C(=O)N1)C(N)=O` [Peptide 47] (X1-CTKRCARRPYKPCA-NH2; linker 1-5-13 via TBMB; N-terminus assumed), the “enrichment of RbAp48 in pull-down” value (RbAp48 [4]) is reported as “successfully able to enrich RbAp48” and the IC50 (RbAp48 [1]; [5]) is reported as 0.0139 ± 0.0056 µM.
With `C[C@@H]1NC(=O)[C@H](CCCNC(=N)N)NC(=O)[C@@H]2CCCN2C(=O)[C@@H](NC(=O)COCCOCCOCCN=[N+]=[N-])CSCc2cc3cc(c2)CSC[C@@H](C(=O)N[C@@H](CCCCN)C(N)=O)NC(=O)[C@H](CCCNC(=N)N)NC(=O)[C@@H]2CCCN2C(=O)[C@H](C)NC(=O)[C@H]([C@@H](C)O)NC(=O)[C@H](CCCCN)NC(=O)[C@H](Cc2ccc(O)cc2)NC(=O)[C@H](CCCNC(=N)N)NC(=O)[C@H](CSC3)NC1=O` [Peptide 48] (X1-CPRACRYKTAPRCK-NH2; linker 1-5-13 via TBMB; N-terminus assumed) the “enrichment of RbAp48 in pull-down” value (RbAp48 [4]) was “no interaction”, the IC50 (RbAp48 [1]; [5]) was greater than 10 µM and the IC50 (RbAp48 [1]; competitive FP assay, read-out: IC50 / affinity) was greater than 10 µM.
